The target of one series is T1, human GIP receptor (Homo sapiens, UniProt P48546).
T1 construct: expressed in transfected cells; host or cells: HEK-293
T1 sequence (P48546 22-466): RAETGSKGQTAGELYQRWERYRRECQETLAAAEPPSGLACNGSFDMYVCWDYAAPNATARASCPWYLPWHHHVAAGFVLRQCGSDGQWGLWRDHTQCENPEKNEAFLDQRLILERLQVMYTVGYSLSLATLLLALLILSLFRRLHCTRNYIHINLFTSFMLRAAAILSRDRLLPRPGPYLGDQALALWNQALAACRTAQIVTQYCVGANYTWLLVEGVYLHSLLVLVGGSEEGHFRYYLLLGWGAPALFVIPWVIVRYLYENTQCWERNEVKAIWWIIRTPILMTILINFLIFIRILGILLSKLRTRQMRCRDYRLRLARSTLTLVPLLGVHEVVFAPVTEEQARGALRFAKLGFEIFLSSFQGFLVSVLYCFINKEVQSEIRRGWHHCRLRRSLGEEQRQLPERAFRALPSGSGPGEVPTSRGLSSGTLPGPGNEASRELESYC
Nature of the series: cAMP response (HTRF) of HEK-293 cells stably expressing human GIP receptor. The class given is cell-based. The conditions noted are these: Table 8; read-out: EC50 hGIP R. In short, it runs like this:
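HEK-293 cells stably expressing human GIP receptor were incubated with compound for 30 min at room temperature in HBSS/20 mM HEPES/0.1% BSA with 2 mM IBMX. cAMP was measured by HTRF (665/616 nm ratio) after 1 h with detection reagents in lysis buffer; EC50 is the concentration giving 50% of maximal response.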
On the technique in general: Time-resolved FRET reads energy transfer from a long-lived donor to a nearby acceptor.

A short description of series [1]: Solubility assessment in solubility buffer system A. The class given is physicochemical. The conditions noted are these: acetate buffer pH 4.5 with m-cresol; acetate buffer pH 4.5, 2.7 mg/ml m-cresol, target 10 mg/ml. The procedure: Prior to the solubility measurement of a peptide batch, its purity was determined through UPLC/MS.
Therefore solutions from solid samples were prepared in a buffer system with a concentration of 10 mg/mL compound based on the previously determined % purity:
Solubility buffer system A) Acetate Buffer pH 4.5, 100 mM sodium acetate trihydrate, 2.7 mg/ml m-Cresol
UPLC-UV was performed after 1 hour of gentle agitation from the supernatant, which was obtained after 15 min of centrifugation at 2500 RCF (relative centrifugal acceleration).
The solubility was determined by the comparison of the UV peak area of 2 μL-injection of a buffered sample diluted 1:10 with a standard curve of a reference peptide with known concentration. The different UV extinction coefficients of sample and reference peptide were calculated based on the different amino acid sequences and considered in the concentration calculation.
Peptide samples were prepared in solubility buffer system A and solubility was assessed as described in Methods.

The record followed here is US10538567B2, “Compounds as peptidic trigonal GLP1/glucagon/GIP receptor agonists” (priority 2016, dated 2020).

Each structure is given as a SMILES string. Numbered stars: 1 amine (or outer) side, 2 acyl side, 3 side chain; on linkers, the order of the positions; unused ones are H or OH. Square brackets hold non-standard residues; d marks the D form. Side chains are listed from the residue outwards. Peptide text beside a SMILES is read from it. * marks the point of attachment. γGlu = O=C(O)[C@H](CCC(=O)[*:2])N[*:1]; Palmitoyl = CCCCCCCCCCCCCCCC(=O)*; Aib = CC(C)(N)C(=O)O Some results are limits rather than exact numbers.

Consider `CCCCCCCCCCCCCCCC(=O)N[C@@H](CCC(=O)N[C@@H](CCC(=O)NCCCC[C@H](NC(=O)[C@H](CC(C)C)NC(=O)[C@H](CCCCN)NC(=O)[C@H](CO)NC(=O)[C@H](CC(C)C)NC(=O)[C@H](CC(=O)O)NC(=O)[C@H](CO)NC(=O)[C@@H](NC(=O)[C@H](Cc1ccccc1)NC(=O)[C@@H](NC(=O)CNC(=O)[C@H](Cc1c[nH]cn1)NC(=O)C(C)(C)NC(=O)[C@@H](N)Cc1c[nH]cn1)[C@@H](C)O)[C@@H](C)O)C(=O)N[C@@H](CCC(=O)O)C(=O)N[C@@H](CCC(=O)O)C(=O)N[C@@H](CCC(N)=O)C(=O)N[C@@H](CCCNC(=N)N)C(=O)N[C@@H](CCC(N)=O)C(=O)N[C@@H](CCCCN)C(=O)N[C@@H](CCC(=O)O)C(=O)N[C@@H](Cc1ccccc1)C(=O)N[C@H](C(=O)N[C@@H](CCC(=O)O)C(=O)N[C@@H](Cc1c[nH]c2ccccc12)C(=O)N[C@@H](CC(C)C)C(=O)N[C@@H](CCCCN)C(=O)N[C@@H](C)C(=O)N[C@H](C)C(=O)NCC(=O)N1CCC[C@H]1C(=O)N1CCC[C@H]1C(=O)N[C@@H](CO)C(=O)NC(C)(C)C(=O)N[C@@H](CCCCN)C(=O)N1CCC[C@H]1C(=O)N1CCC[C@H]1C(=O)N1CCC[C@H]1C(=O)N[C@@H](CCCCN)C(N)=O)[C@@H](C)CC)C(=O)O)C(=O)O` [SEQ ID NO: 9, H-Aib-H-G-T-F-T-S-D-L-S-K-L-K[gGlu-gGlu-Palm]-E-E-Q-R-Q-K-E-F-I-E-W-L-K-A-dAla-G-P-P-S-Aib-K-P-P-P-K-NH2] (H-H[Aib]HGTFTSDLSKLK([γGlu-γGlu-Palmitoyl])EEQRQKEFIEWLKA[dA]GPPS[Aib]KPPPK-NH2), for which the EC50 at human GIP receptor came to 2.6 pM. The molecule further yielded a solubility at 1 h in series [1] greater than 9300 µg/mL. The molecule `CCCCCCCCCCCCCCCC(=O)N[C@@H](CCC(=O)N[C@@H](CCC(=O)NCCCC[C@H](NC(=O)[C@H](CC(C)C)NC(=O)[C@H](CCCCN)NC(=O)[C@H](CO)NC(=O)[C@H](CC(C)C)NC(=O)[C@H](CC(=O)O)NC(=O)[C@H](CO)NC(=O)[C@@H](NC(=O)[C@H](Cc1ccccc1)NC(=O)[C@@H](NC(=O)CNC(=O)[C@H](Cc1c[nH]cn1)NC(=O)C(C)(C)NC(=O)[C@@H](N)Cc1c[nH]cn1)[C@@H](C)O)[C@@H](C)O)C(=O)N[C@@H](CCC(=O)O)C(=O)N[C@@H](CCC(=O)O)C(=O)N[C@@H](CCC(N)=O)C(=O)N[C@@H](CCCNC(=N)N)C(=O)N[C@@H](CCC(N)=O)C(=O)N[C@@H](CCCCN)C(=O)N[C@@H](CCC(=O)O)C(=O)N[C@@H](Cc1ccccc1)C(=O)N[C@H](C(=O)N[C@@H](CCC(=O)O)C(=O)N[C@@H](Cc1c[nH]c2ccccc12)C(=O)N[C@@H](CC(C)C)C(=O)N[C@@H](CCCCN)C(=O)N[C@@H](C)C(=O)NCC(=O)NCC(=O)N[C@@H](Cc1c[nH]cn1)C(=O)N1CCC[C@H]1C(=O)N[C@@H](CO)C(=O)NC(C)(C)C(=O)N[C@@H](CCCCN)C(=O)N1CCC[C@H]1C(=O)N1CCC[C@H]1C(=O)N1CCC[C@H]1C(=O)N[C@@H](CCCCN)C(N)=O)[C@@H](C)CC)C(=O)O)C(=O)O` [SEQ ID NO: 6, H-Aib-H-G-T-F-T-S-D-L-S-K-L-K[gGlu-gGlu-Palm]-E-E-Q-R-Q-K-E-F-I-E-W-L-K-A-G-G-H-P-S-Aib-K-P-P-P-K-NH2] had a solubility at 1 h in series [1] greater than 9700 µg/mL. Regarding `CCCCCCCCCCCCCCCC(=O)N[C@@H](CCC(=O)N[C@@H](CCC(=O)NCCCC[C@H](NC(=O)[C@H](CC(C)C)NC(=O)[C@H](CCCCN)NC(=O)[C@H](CO)NC(=O)[C@H](CC(C)C)NC(=O)[C@H](CC(=O)O)NC(=O)[C@H](CO)NC(=O)[C@@H](NC(=O)[C@H](Cc1ccccc1)NC(=O)[C@@H](NC(=O)CNC(=O)[C@H](Cc1c[nH]cn1)NC(=O)C(C)(C)NC(=O)[C@@H](N)Cc1c[nH]cn1)[C@@H](C)O)[C@@H](C)O)C(=O)N[C@@H](CCC(=O)O)C(=O)N[C@@H](CCC(=O)O)C(=O)N[C@@H](CCC(N)=O)C(=O)N[C@@H](CCCNC(=N)N)C(=O)N[C@@H](CCC(N)=O)C(=O)NC(C)(C)C(=O)N[C@@H](CCC(=O)O)C(=O)N[C@@H](Cc1ccccc1)C(=O)N[C@H](C(=O)N[C@@H](CCC(=O)O)C(=O)N[C@@H](Cc1c[nH]c2ccccc12)C(=O)N[C@@H](CC(C)C)C(=O)N[C@@H](CCCCN)C(=O)N[C@@H](C)C(=O)NCC(=O)NCC(=O)N1CCC[C@H]1C(=O)N1CCC[C@H]1C(=O)N[C@@H](CO)C(=O)NC(C)(C)C(=O)N[C@@H](CCCCN)C(=O)N1CCC[C@H]1C(=O)N1CCC[C@H]1C(=O)N1CCC[C@H]1C(=O)N[C@@H](CCCCN)C(N)=O)[C@@H](C)CC)C(=O)O)C(=O)O` [SEQ ID NO: 10, H-Aib-H-G-T-F-T-S-D-L-S-K-L-K[gGlu-gGlu-Palm]-E-E-Q-R-Q-Aib-E-F-I-E-W-L-K-A-G-G-P-P-S-Aib-K-P-P-P-K-NH2], the EC50 on human GIP receptor worked out at 1.1 pM. The molecule further gave a solubility at 1 h in series [1] greater than 9800 µg/mL. Consider `CCCCCCCCCCCCCCCC(=O)N[C@@H](CCC(=O)N[C@@H](CCC(=O)NCCCC[C@H](NC(=O)[C@H](CC(C)C)NC(=O)[C@H](CCCCN)NC(=O)[C@H](CO)NC(=O)[C@H](CC(C)C)NC(=O)[C@H](CC(=O)O)NC(=O)[C@H](CO)NC(=O)[C@@H](NC(=O)[C@H](Cc1ccccc1)NC(=O)[C@@H](NC(=O)CNC(=O)[C@H](Cc1c[nH]cn1)NC(=O)C(C)(C)NC(=O)[C@@H](N)Cc1c[nH]cn1)[C@@H](C)O)[C@@H](C)O)C(=O)N[C@@H](CCC(=O)O)C(=O)N[C@@H](CCC(=O)O)C(=O)N[C@@H](CCC(N)=O)C(=O)N[C@@H](CCCNC(=N)N)C(=O)N[C@@H](CCC(N)=O)C(=O)N[C@@H](CCCCN)C(=O)N[C@@H](CCC(=O)O)C(=O)N[C@@H](Cc1ccccc1)C(=O)N[C@H](C(=O)N[C@@H](CCC(=O)O)C(=O)N[C@@H](Cc1c[nH]c2ccccc12)C(=O)N[C@@H](CC(C)C)C(=O)N[C@@H](CCCCN)C(=O)N[C@@H](C)C(=O)N[C@H](C)C(=O)NCC(=O)N[C@@H](Cc1c[nH]cn1)C(=O)N1CCC[C@H]1C(=O)N[C@@H](CO)C(=O)NC(C)(C)C(=O)N[C@@H](CCCCN)C(=O)N1CCC[C@H]1C(=O)N1CCC[C@H]1C(=O)N1CCC[C@H]1C(=O)N[C@@H](CCCCN)C(N)=O)[C@@H](C)CC)C(=O)O)C(=O)O` [SEQ ID NO: 7, H-Aib-H-G-T-F-T-S-D-L-S-K-L-K[gGlu-gGlu-Palm]-E-E-Q-R-Q-K-E-F-I-E-W-L-K-A-dAla-G-H-P-S-Aib-K-P-P-P-K-NH2] (H-H[Aib]HGTFTSDLSKLK([γGlu-γGlu-Palmitoyl])EEQRQKEFIEWLKA[dA]GHPS[Aib]KPPPK-NH2), for which, at human GIP receptor, the EC50 is 2.6 pM.

One may read the EC50 as the concentration at which the effect is half-maximal. One may read the solubility as the dissolved amount per volume that the medium holds. Low values mean a poorly soluble substance, high ones a readily soluble substance.
